Measurements published in US20240309090A1, “MODULATION OF ANDROGEN SIGNALING TO INNATE IMMUNE KILLING OF PROSTATE CANCER” (Brown University, priority 2023, published 2024).

Experiments:
[1] = tested on: PC cell lines (LNCap, 22Rv1, DU145, PC3); assay: Co-cultures of PC cell lines with NK cells (1:1), immune-mediated PC killing; format: cell-based; details: for immune-mediated PC killing effect: Example 2, PC with NK-92 cells and patient-derived NK cells, within 24 hrs
Experimental: Prostate cancer cell lines were dyed with the blue CMAC live-cell dye (Thermo Fisher Scientific #C2110, per manufacturer protocol). Blue-fluorescent cancer cells were plated at a density of 10,000 cells per well of a 48-well plate. NK-92 cells were dyed with green CMFDA (Cayman Chemical Company #19583, per manufacturer protocol). Green-fluorescent NK-92 cells were added to the blue-fluorescent cancer cells at a 1:1 ratio. Enzalutamide (10 μM), darolutamide (20 μM), and 1 μM ethidium homodimer (EthD-1) were added at the same time as the NK cells. After 24 hours of co-culture, images of live cancer cells, live NK cells, and dead cells were taken using a fluorescent microscope. The co-culture experiments were run with internal control conditions and as a single treatment. Normalization was performed after analysis to take baseline death conditions into each experiment run. To optimize the high output of these experiments, a subset of co-cultures were performed using the ImageXpress® Micro Confocal High-Content Imaging. This analysis maintained the experiment conditions, drug concentrations, and the dyeing process. When GFP-labeled tumor cells were used for culture assays, they were added in a 1:1 ratio. Cell adhered over 24 h, and when patient-derived NK cells were added, a control well was trypsinized, and cells resuspended and counted to adjust a 1:1 ratio before treatment addition. The experiments with blocking antibodies were performed using the ImageXpress system. TRAIL blocking ab was purchased from Santa Cruz TRAIL Antibody (RIK-2): sc-56246, and IFN gamma blocking Monoclonal Antibody (NIB42, #6-7318-81) was purchased from Thermo Fisher. The blocking mAb was added when NK cells were combined with tumor cells.
(§1) Live cancer cells, NK cells, and dead cells were quantified using FIJI (Fiji Is Just ImageJ) software for images derived from fluorescent co-culture images. Images from the ImageXpress system were quantified using MetaXpress cytoplasmic/nuclear staining software. The percent of dead tumor cells in each well was quantified, and this percentage was normalized by subtracting baseline death from cancer cell-only wells, NK cell-only wells, or both. A two-way ANOVA was used to calculate the interaction effect between drug treatment and NK cells.
In groups with a significant interaction effect, data was further normalized in the cancer cell+NK cells+drug treatment well by subtracting out death in the cancer cell+drug well. A one-way ANOVA and multiple comparison analysis with subsequent t-tests were used to calculate the statistical significance of the difference between this group and the cancer cell+NK cell well. GraphPad Prism Version 9.5.1 was used for statistical analysis.
(§2) We conducted cell viability assays to investigate the effect of Enza and Daro on PC cells (LNCap, 22Rv1 [ARv7 mutation], DU145, PC3 [AR-]) and NK-92 cells. We performed co-culture experiments with PC and NK cells in a 1:1 ratio and analyzed immune cell-mediated tumor cell killing (ImageXpress Confocal HT). Cytokine profiling (Luminex 200) of culture supernatants was performed following treatment with ARi−/+ and anti-IFN-γ antibodies. In vivo studies were performed in NCr Nude mice harboring subcutaneous PC tumors treated orally with Daro (50 mg/kg/bid) and Enza (30 mg/kg/bid) for 4 weeks.
We performed ATP-based (CellTiter-Glo) viability assays to investigate the effect of Enzalutamide and Darolutamide on PC cell lines (LNCap, 22Rv1 [ARv7 mutation], DU145, PC3 [AR-]) and NK-92 cells. We performed co-culture experiments with PC and NK cells at a 1:1 ratio throughout 4 h, 6 h, 12 h, 24 h, and 48 h periods. We analyzed immune cell-mediated tumor cell killing in the presence of Enza and Darolutamide (ImageXpress Confocal HT). Western Blotting was performed to evaluate different protein expression levels and their regulation related to sensitivity in mediating immune-mediated cell killing (apoptotic family). […]

[2] = tested on: PC tumors (PC3, 22Rv1 xenograft); assay: NK cell infiltration in subcutaneous PC tumors of treated mice; format: in vivo, NCr Nude mice; details: oral, Daro 50 mg/kg/bid, Enza 30 mg/kg/bid, 4 weeks
Experimental: as §2
In vivo studies were performed in NCr Nude mice harboring subcutaneous PC tumors treated orally with Daro (50 mg/kg/bid) and Enza (30 mg/kg/bid) for 4 weeks.

[3] = tested on: LNCaP; assay: Co-culture of LNCaP with NK-92 cells, immune-mediated tumor cell killing; format: cell-based
Experimental: (§3) They were co-treated with enzalutamide ([…]) or darolutamide (20 μM) for 48 h. Doses of AR inhibitors (ARi) used in the co-culture experiments were based on previous IC50 experiments. […] The immune-mediated effect of NK-92 on the PCa cell lines in the presence of enzalutamide (immune enhancement death) was normalized to baseline immune and tumor cell killing in each condition [(tumor cells+immune cells)-tumor baseline death=baseline immune death]. […] Cytokine analysis was performed to investigate the activation phenotype of NK cells when treated with ARi.
Prostate cancer cell lines were dyed with the blue CMAC live-cell dye (Thermo Fisher Scientific #C2110, per manufacturer protocol). Blue-fluorescent cancer cells were plated at a density of 10,000 cells per well of a 48-well plate. NK-92 cells were dyed with green CMFDA (Cayman Chemical Company #19583, per manufacturer protocol). Green-fluorescent NK-92 cells were added to the blue-fluorescent cancer cells at a 1:1 ratio. Enzalutamide (10 μM), darolutamide (20 μM), and 1 μM ethidium homodimer (EthD-1) were added at the same time as the NK cells. After 24 hours of co-culture, images of live cancer cells, live NK cells, and dead cells were taken using a fluorescent microscope. The co-culture experiments were run with internal control conditions and as a single treatment. Normalization was performed after analysis to take baseline death conditions into each experiment run. […] Cell adhered over 24 h, and when patient-derived NK cells were added, a control well was trypsinized, and cells resuspended and counted to adjust a 1:1 ratio before treatment addition. […]
as §1, with “both.” for “both. A two-way ANOVA was used to calculate the interaction effect between drug treatment and NK cells.”

[4] = tested on: PC3; assay: Co-culture of PC3 with NK-92 cells, immune-mediated tumor cell killing; format: cell-based; details: PC3 + NK-92 1:1, 24 hours
Experimental: as §3
(§4) Prostate cancer cell lines were dyed with the blue CMAC live-cell dye (Thermo Fisher Scientific #C2110, per manufacturer protocol). […] Cell adhered over 24 h, and when patient-derived NK cells were added, a control well was trypsinized, and cells resuspended and counted to adjust a 1:1 ratio before treatment addition. […]
as §1, with “both.” for “both. A two-way ANOVA was used to calculate the interaction effect between drug treatment and NK cells.”

[5] = tested on: DU145; assay: Co-culture of DU145 with NK-92 cells, immune-mediated tumor cell killing; format: cell-based; details: DU145 + NK-92 1:1, 24 hours
Experimental: as §3, §4
as §1, with “both.” for “both. A two-way ANOVA was used to calculate the interaction effect between drug treatment and NK cells.”

[6] = tested on: NK-92 cells; assay: NK cell viability assay (CellTiterGlo); format: cell-based; details: NK cells alone, doses used in co-culture
[7] = Example 1, PC + NK-92, within 24 hours
[8] = Example 2, PC + NK-92, within 24 hours, blocking mAbs 10 ug/ml

Question: Which results are given for CC(O)c1cc(C(=O)N[C@@H](C)Cn2ccc(-c3ccc(C#N)c(Cl)c3)n2)n[nH]1 (stereo partly shown) [darolutamide]?
Answer: immune-mediated PC killing [1, 7]: 41%; immune-mediated PC killing [1, 8]: 36%; immune-mediated PC killing effect [1]: 36%; NK cell infiltration in the tumor microenvironment [2]: increased

Question: CNC(=O)c1ccc(N2C(=S)N(c3ccc(C#N)c(C(F)(F)F)c3)C(=O)C2(C)C)cc1F [enzalutamide] was tested. Which “cell death rate (NK cell-mediated tumor killing)” value (from here on “cell death rate”) ([3]; LNCaP + NK-92 1:1, 24 hours) did it give?
Answer: 48.3%

Question: And the “NK cell killing of PCa cells (immune enhancement)” value ([3]; LNCaP + NK-92 1:1, enzalutamide 10 μM, FIG. 15A)?
Answer: 35.32%

Question: What about the “cell death rate” value [4] of the same molecule?
Answer: 11.05±4.6%

Question: And the “cell death rate” value [5]?
Answer: 34.8±4.92%

Question: What about the “immune-mediated PC killing” value [1, 7] of the same molecule?
Answer: 36%

Question: What about the “immune-mediated PC killing” value [1, 8] of the same molecule?
Answer: 40%

Question: And the “immune-mediated PC killing effect” value [1]?
Answer: 40%

Question: What about the “NK cell infiltration in the tumor microenvironment” value [2] of the same molecule?
Answer: increased

Question: What about the NK cell viability [6] of the same molecule?
Answer: noncytotoxic
